Reference: ChEMBL document CHEMBL3997763 (Medchemcomm, 2016)
The source made the active and inactive calls. The calls are words filed in the database; no cut-off is given here.

What was measured:
Rattus norvegicus [1] = assay: Hypolipidemic activity in HFD-induced Charles Foster rat assessed as reduction in serum LDL-TG at 10 mg/kg administered as single dose via oral gavage for 30 days simultaneously with high fat diet; format: functional, organism-based
Rattus norvegicus [2] = assay: Hypolipidemic activity in HFD-induced Charles Foster rat assessed as increase in human I125-LDL binding to rat liver plasma membrane at 10 mg/kg administered as single dose via oral gavage for 30 days simultaneously with high fat diet by minigamma counting; format: functional, organism-based
Rattus norvegicus [3] = assay: Hypolipidemic activity in HFD-induced Charles Foster rat assessed as increase in serum HDL-TG at 10 mg/kg administered as single dose via oral gavage for 30 days simultaneously with high fat diet; format: functional, organism-based
Rattus norvegicus [4] = assay: Antihyperlipidemic activity in triton WR-1339 induced Charles Foster rat hyperlipidemia model assessed as inhibition of phospholipid level in serum at 10 mg/kg, po administered simultaneously with triton WR-1339 after 18 hrs by enzymatic method relative to control; format: functional
[5] = biological target: T1, 3-hydroxy-3-methylglutaryl-coenzyme A reductase (Homo sapiens) (UniProt P04035); assay: Inhibition of human HMG-CoA reductase catalytic domain at 20 uM using HMG-CoA as substrate in presence of NADPH by colorimetric method relative to control
T1 sequence (whole entry): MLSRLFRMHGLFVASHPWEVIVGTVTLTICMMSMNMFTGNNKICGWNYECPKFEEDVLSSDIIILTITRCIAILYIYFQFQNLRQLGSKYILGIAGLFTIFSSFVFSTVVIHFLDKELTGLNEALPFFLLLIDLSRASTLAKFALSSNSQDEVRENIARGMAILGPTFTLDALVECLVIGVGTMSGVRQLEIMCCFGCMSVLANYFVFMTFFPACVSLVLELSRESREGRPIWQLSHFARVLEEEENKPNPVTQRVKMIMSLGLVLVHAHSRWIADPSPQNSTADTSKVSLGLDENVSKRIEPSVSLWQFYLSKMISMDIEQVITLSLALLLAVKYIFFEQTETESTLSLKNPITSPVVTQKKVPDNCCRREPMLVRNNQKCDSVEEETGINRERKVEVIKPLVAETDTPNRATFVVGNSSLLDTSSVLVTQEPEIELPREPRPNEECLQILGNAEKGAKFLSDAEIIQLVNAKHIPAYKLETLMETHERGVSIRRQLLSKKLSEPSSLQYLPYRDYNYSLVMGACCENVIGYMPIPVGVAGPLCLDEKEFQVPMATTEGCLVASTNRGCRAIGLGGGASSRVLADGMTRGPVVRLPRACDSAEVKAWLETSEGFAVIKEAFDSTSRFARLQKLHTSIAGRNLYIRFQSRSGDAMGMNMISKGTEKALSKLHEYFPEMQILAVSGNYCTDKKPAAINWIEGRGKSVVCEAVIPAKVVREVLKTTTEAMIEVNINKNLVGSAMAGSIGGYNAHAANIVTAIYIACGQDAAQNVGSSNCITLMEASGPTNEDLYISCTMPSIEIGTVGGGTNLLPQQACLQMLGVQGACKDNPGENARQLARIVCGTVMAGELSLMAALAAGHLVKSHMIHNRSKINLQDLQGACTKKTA

[6] = biological target: T1, 3-hydroxy-3-methylglutaryl-coenzyme A reductase (Homo sapiens); assay: Inhibition of human HMG-CoA reductase catalytic domain at 10 uM using HMG-CoA as substrate in presence of NADPH by colorimetric method relative to control
Rattus norvegicus [7] = assay: Hypolipidemic activity in HFD-induced Charles Foster rat assessed as inhibition of hepatic HMG-CoA reductase activity by measuring […] at 10 mg/kg administered as single dose via oral gavage for 30 days simultaneously with high fat diet by colorimetric method; format: functional, organism-based
Rattus norvegicus [8] = assay: Antihyperlipidemic activity in triton WR-1339 induced Charles Foster rat hyperlipidemia model assessed as inhibition of triglyceride level in serum at 10 mg/kg, po administered simultaneously with triton WR-1339 after 18 hrs by enzymatic method relative to control; format: functional
[9] = biological target: T1, 3-hydroxy-3-methylglutaryl-coenzyme A reductase (Homo sapiens); assay: Inhibition of human HMG-CoA reductase catalytic domain at 5 uM using HMG-CoA as substrate in presence of NADPH by colorimetric method relative to control
Rattus norvegicus [10] = assay: Hypolipidemic activity in HFD-induced Charles Foster rat chronic hyperlipidemia model assessed as reduction in serum AST level at 10 mg/kg administered via oral gavage for 30 days simultaneously with high fat diet by colorimetric method relative to HFD treated vehicle; format: functional; conditions: 720 h
Rattus norvegicus [11] = assay: Hypolipidemic activity in HFD-induced Charles Foster rat chronic hyperlipidemia model assessed as reduction in serum ALT level at 10 mg/kg administered via oral gavage for 30 days simultaneously with high fat diet by colorimetric method relative to HFD treated vehicle; format: functional; conditions: 720 h
Rattus norvegicus [12] = assay: Hypolipidemic activity in HFD-induced Charles Foster rat assessed as reduction in serum VLDL-TG at 10 mg/kg administered as single dose via oral gavage for 30 days simultaneously with high fat diet; format: functional, organism-based
[13] = biological target: T1, 3-hydroxy-3-methylglutaryl-coenzyme A reductase (Homo sapiens); assay: Inhibition of human HMG-CoA reductase catalytic domain at 50 uM using HMG-CoA as substrate in presence of NADPH by colorimetric method relative to control
Rattus norvegicus [14] = assay: Hypolipidemic activity in HFD-induced Charles Foster rat assessed as increase in serum LCAT activity at 10 mg/kg administered as single dose via oral gavage for 30 days simultaneously with high fat diet by photometric method; format: functional, organism-based
Rattus norvegicus [15] = assay: Hypolipidemic activity in HFD-induced Charles Foster rat assessed as reduction in serum LDL-TC at 10 mg/kg administered as single dose via oral gavage for 30 days simultaneously with high fat diet; format: functional, organism-based
Rattus norvegicus [16] = assay: Antihyperlipidemic activity in triton WR-1339 induced Charles Foster rat hyperlipidemia model assessed as inhibition of total cholesterol level in serum at 10 mg/kg, po administered simultaneously with triton WR-1339 after 18 hrs by enzymatic method relative to control; format: functional
Rattus norvegicus [17] = assay: Hypolipidemic activity in HFD-induced Charles Foster rat chronic hyperlipidemia model assessed as reduction in liver triglyceride level at 10 mg/kg administered via oral gavage for 30 days simultaneously with high fat diet by enzymatic method relative to HFD treated vehicle; format: functional; conditions: 720 h
Rattus norvegicus [18] = assay: Hypolipidemic activity in HFD-induced Charles Foster rat chronic hyperlipidemia model assessed as reduction in liver total cholesterol level at 10 mg/kg administered via oral gavage for 30 days simultaneously with high fat diet by enzymatic method relative to HFD treated vehicle; format: functional; conditions: 720 h
[19] = biological target: T1, 3-hydroxy-3-methylglutaryl-coenzyme A reductase (Homo sapiens); assay: Inhibition of human HMG-CoA reductase catalytic domain at 1 uM using HMG-CoA as substrate in presence of NADPH by colorimetric method relative to control
Rattus norvegicus [20] = assay: Hypolipidemic activity in HFD-induced Charles Foster rat chronic hyperlipidemia model assessed as reduction in serum triglyceride level at 10 mg/kg administered via oral gavage for 30 days simultaneously with high fat diet by enzymatic method relative to HFD treated vehicle; format: functional; conditions: 720 h
Rattus norvegicus [21] = assay: Hypolipidemic activity in HFD-induced Charles Foster rat assessed as increase in serum HDL-TC at 10 mg/kg administered as single dose via oral gavage for 30 days simultaneously with high fat diet; format: functional, organism-based
[22] = biological target: T1, 3-hydroxy-3-methylglutaryl-coenzyme A reductase (Homo sapiens); assay: Inhibition of human HMG-CoA reductase catalytic domain at 100 uM using HMG-CoA as substrate in presence of NADPH by colorimetric method relative to control
Rattus norvegicus [23] = assay: Hypolipidemic activity in HFD-induced Charles Foster rat assessed as reduction in serum VLDL-TC at 10 mg/kg administered as single dose via oral gavage for 30 days simultaneously with high fat diet; format: functional, organism-based
Rattus norvegicus [24] = assay: Hypolipidemic activity in HFD-induced Charles Foster rat assessed as increase in lipolytic activity of LPL in liver at 10 mg/kg administered as single dose via oral gavage for 30 days simultaneously with high fat diet; format: functional, organism-based
Rattus norvegicus [25] = assay: Hypolipidemic activity in HFD-induced Charles Foster rat chronic hyperlipidemia model assessed as reduction in serum total cholesterol level at 10 mg/kg administered via oral gavage for 30 days simultaneously with high fat diet by enzymatic method relative to HFD treated vehicle; format: functional; conditions: 720 h

inhibition [5]: 69% | inhibition [6]: 60 to 63% | inhibition [9]: 35% | inhibition [13]: 76% | inhibition [19]: 20% | inhibition [22]: 83%
SMILES: CC(C)c1c(C(=O)Nc2ccccc2)c(-c2ccccc2)c(-c2ccc(F)cc2)n1CC[C@@H](O)C[C@@H](O)CC(=O)O [ATORVASTATIN]
Activity (Rattus norvegicus [1]): Active | Activity (Rattus norvegicus [2]): Active | Activity (Rattus norvegicus [3]): Active | inhibition in vivo at 10 mg/kg (Rattus norvegicus [4]): 35% | inhibition (Rattus norvegicus [7]): Active | inhibition in vivo at 10 mg/kg (Rattus norvegicus [8]): 35% | inhibition in vivo at 10 mg/kg (Rattus norvegicus [10]): 29% | inhibition in vivo at 10 mg/kg (Rattus norvegicus [11]): 25% | Activity (Rattus norvegicus [12]): Active | Activity (Rattus norvegicus [14]): Active | Activity (Rattus norvegicus [15]): Active | inhibition in vivo at 10 mg/kg (Rattus norvegicus [16]): 36% | inhibition in vivo at 10 mg/kg (Rattus norvegicus [17]): 30% | inhibition in vivo at 10 mg/kg (Rattus norvegicus [18]): 28% | inhibition in vivo at 10 mg/kg (Rattus norvegicus [20]): 26% | Activity (Rattus norvegicus [21]): Active | Activity (Rattus norvegicus [23]): Active | Activity (Rattus norvegicus [24]): Active | inhibition in vivo at 10 mg/kg (Rattus norvegicus [25]): 25%
